# Patent US11000033B2, “Ketone or oxime compound, and herbicide” (NISSAN CHEMICAL CORPORATION, priority 2014, dated 2021)
# Tests used:
# Format in all cases: in vivo
# Avena fatua = assay: Test Example 4: herbicidal effect by soil treatment (symbol I); conditions: for I (Avena fatua) herbicidal effect grade: application herbicide amount 320 g/ha
# Procedure, shortened: (§1)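 Seeds were sown in sterilized diluvial soil, covered with about 1.5 cm of soil, and the soil surface was sprayed with a water-diluted emulsion of the compound at a predetermined rate. Plants grew in a greenhouse at 25° C. to 30° C.; effects were scored visually 3 weeks after application.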
# Leptochloa chinensis = assay: Test Example 3: herbicidal effect by foliage application, Wagner pot (symbol D); conditions: application herbicide amount 320 g/ha
# Procedure, shortened: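 Alluvial soil was flooded to a depth of 0.1–0.5 cm, seeded with the weeds and rice, and kept in a greenhouse at 25–30 °C. After 14 days of growth, the foliage received a small-sprayer application of emulsion diluted to the intended rate; injury was rated at 3 weeks.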
# Scirpus juncoides = assay: Test Example 2: herbicidal activity, application during weed generation in submerged conditions (symbol B); conditions: Table 23; application herbicide amount 320 g/ha; grade 0-5 by criteria of Test Example 1
# Procedure, shortened: (§2)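 Weeds emerging under flooded conditions were treated with compound formulated as an emulsion and diluted with water to the intended herbicide amount, poured onto the surface of 4 cm standing water. Seeds had been co-sown in alluvial soil; plants grew at 25° C. to 30° C. and were assessed after 3 weeks.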
# Abutilon theophrasti [1] = assay: Test Example 4: herbicidal effect by soil treatment (symbol M); conditions: for M (Abutilon theophrasti) herbicidal effect grade: application herbicide amount 320 g/ha
# Procedure, shortened: as §1
# beet [2] = assay: Test Example 4: effect on crop by soil treatment (symbol f); conditions: for f (beet) effect on crop grade: application herbicide amount 320 g/ha
# Procedure, shortened: (§3)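 Grown at 25° C. to 30° C. in a greenhouse, the crops came from seed sown spot-wise in sterilized diluvial soil under roughly 1.5 cm of covering soil.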
# beet [3] = assay: Test Example 5: effect on crop by foliage application, plastic box (symbol f); conditions: 320 g/ha, 3 weeks after application
# Procedure, shortened: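 Crop seed is sown alongside grass and broadleaf weed species in spots in sterilized diluvial soil, then covered to a depth of about 1.5 cm. Plants grow in a greenhouse kept at 25° C. to 30° C.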
# transplanted rice plant = assay: Test Example 1: effect on crop, application before weed generation in submerged conditions (symbol a); conditions: application herbicide amount 320 g/ha
# Procedure, shortened: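 Alluvial soil pots flooded to 4 cm water, sown with Echinochloa oryzacola, Scirpus juncoides and Monochoria vaginalis, then transplanted with 2.5 leaf stage rice seedlings; pre-emergence application. Greenhouse 25° C. to 30° C.; scored 0–5 by herbicidal ratio 3 weeks after application.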
# [4] = system: Echinochloa oryzacola Vasing.; assay: Test Example 2: herbicidal activity, application during weed generation in submerged conditions (symbol A); conditions: Table 23; application herbicide amount 320 g/ha; grade 0-5 by criteria of Test Example 1
# Procedure, shortened: as §2
# Lolium multiflorum Lam. = assay: Test Example 5: herbicidal effect by foliage application, plastic box (symbol K); conditions: 320 g/ha, 3 weeks after application
# Procedure, shortened: (§4)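 Effect is rated 3 weeks after a foliar spray of water-diluted emulsion concentrate at a predetermined herbicide amount. Plants had grown 14 days in a 25° C. to 30° C. greenhouse from seed in sterilized diluvial soil.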
# Abutilon theophrasti [5] = assay: Test Example 5: herbicidal effect by foliage application, plastic box (symbol M); conditions: 320 g/ha, 3 weeks after application
# Procedure, shortened: as §4
# soybean = assay: Test Example 4: effect on crop by soil treatment (symbol d); conditions: for d (soybean) effect on crop grade: application herbicide amount 320 g/ha
# Procedure, shortened: as §3
# Setaria viridis = assay: Test Example 5: herbicidal effect by foliage application, plastic box (symbol G); conditions: 320 g/ha, 3 weeks after application
# Procedure, shortened: as §4
SMILES,"I: Avena fatua, herbicidal effect grade (Avena fatua; 320 g/ha)","herbicidal effect on D (Leptochloa chinensis), grade 0-5 (Leptochloa chinensis)","Herbicidal effect grade, B: Scirpus juncoides (Scirpus juncoides)","M: Abutilon theophrasti, herbicidal effect grade (Abutilon theophrasti [1]; 320 g/ha)","f: beet, effect grade on crop (beet [2]; 320 g/ha)","f: beet, effect on crop (criteria 0-5) (beet [3])","Effect grade on crop, a: transplanted rice plant (transplanted rice plant)","Herbicidal effect grade, A: Echinochloa oryzacola Vasing. [4]","K: Lolium multiflorum Lam., herbicidal effect (criteria 0-5) (Lolium multiflorum Lam.)","M: Abutilon theophrasti, herbicidal effect (criteria 0-5) (Abutilon theophrasti [5])","d: soybean, effect grade on crop (soybean; 320 g/ha)","G: Setaria viridis, herbicidal effect (criteria 0-5) (Setaria viridis)",I (Avena fatua) herbicidal effect grade (Avena fatua),M (Abutilon theophrasti) herbicidal effect grade (Abutilon theophrasti [1]),f (beet) effect on crop grade (beet [2]),"f: beet, effect on crop grade (beet [3])","K: Lolium multiflorum Lam., herbicidal effect grade (Lolium multiflorum Lam.)","M: Abutilon theophrasti, herbicidal effect grade (Abutilon theophrasti [5])",d (soybean) effect on crop grade (soybean),"G: Setaria viridis, herbicidal effect grade (Setaria viridis)"
CON=C(C)CC1CC(OC(=O)COCc2ccccc2)=C(c2c(C)cc(C)cc2C)C1=O (stereo not drawn) [1-094],3 (Herbicidal ratio of 40% or higher and lower than 70%),5 (Herbicidal ratio of 90% or more (almost completely withered)),5 (Herbicidal ratio of 90% or more (almost completely withered)),2 (Herbicidal ratio of 20% or higher and lower than 40%),0 (Herbicidal ratio of 5% or lower (almost no effect)),0 (Herbicidal ratio of 5% or lower (almost no effect)),5 (Herbicidal ratio of 90% or more (almost completely withered)),5 (Herbicidal ratio of 90% or more (almost completely withered)),5 (Herbicidal ratio of 90% or more (almost completely withered)),4 (Herbicidal ratio of 70% or higher and lower than 90%),1 (Herbicidal ratio of 5% or higher and lower than 20%),5 (Herbicidal ratio of 90% or more (almost completely withered)),,,,,,,,
CON=CCC1CC(O)=C(c2c(C)cc(C)cc2C)C1=O (stereo not drawn) [1-050],,4 (Herbicidal ratio of 70% or higher and lower than 90%),0 (Herbicidal ratio of 5% or lower (almost no effect)),,,,4 (Herbicidal ratio of 70% or higher and lower than 90%),3 (Herbicidal ratio of 40% or higher and lower than 70%),,,,,0 (Herbicidal ratio of 5% or lower (almost no effect)),1 (Herbicidal ratio of 5% or higher and lower than 20%),0 (Herbicidal ratio of 5% or lower (almost no effect)),0 (Herbicidal ratio of 5% or lower (almost no effect)),5 (Herbicidal ratio of 90% or more (almost completely withered)),3 (Herbicidal ratio of 40% or higher and lower than 70%),0 (Herbicidal ratio of 5% or lower (almost no effect)),5 (Herbicidal ratio of 90% or more (almost completely withered))
CON=C(CC1CC(O)=C(c2c(C)cc(C)cc2C)C1=O)C(C)(C)C (stereo not drawn) [1-059],,1 (Herbicidal ratio of 5% or higher and lower than 20%),0 (Herbicidal ratio of 5% or lower (almost no effect)),,,,4 (Herbicidal ratio of 70% or higher and lower than 90%),4 (Herbicidal ratio of 70% or higher and lower than 90%),,,,,0 (Herbicidal ratio of 5% or lower (almost no effect)),1 (Herbicidal ratio of 5% or higher and lower than 20%),0 (Herbicidal ratio of 5% or lower (almost no effect)),0 (Herbicidal ratio of 5% or lower (almost no effect)),3 (Herbicidal ratio of 40% or higher and lower than 70%),0 (Herbicidal ratio of 5% or lower (almost no effect)),0 (Herbicidal ratio of 5% or lower (almost no effect)),4 (Herbicidal ratio of 70% or higher and lower than 90%)
CON=C(C)CC1CC(OC(=O)C(C)(C)Oc2cccc(Cl)c2)=C(c2c(C)cc(C)cc2C)C1=O (stereo not drawn) [1-065],,5 (Herbicidal ratio of 90% or more (almost completely withered)),5 (Herbicidal ratio of 90% or more (almost completely withered)),,,,5 (Herbicidal ratio of 90% or more (almost completely withered)),4 (Herbicidal ratio of 70% or higher and lower than 90%),,,,,3 (Herbicidal ratio of 40% or higher and lower than 70%),4 (Herbicidal ratio of 70% or higher and lower than 90%),0 (Herbicidal ratio of 5% or lower (almost no effect)),0 (Herbicidal ratio of 5% or lower (almost no effect)),5 (Herbicidal ratio of 90% or more (almost completely withered)),4 (Herbicidal ratio of 70% or higher and lower than 90%),0 (Herbicidal ratio of 5% or lower (almost no effect)),5 (Herbicidal ratio of 90% or more (almost completely withered))
CON=C(C)CC1CC(OC(=O)C(C)(C)Oc2ccc(Cl)cc2)=C(c2c(C)cc(C)cc2C)C1=O (stereo not drawn) [1-051],,5 (Herbicidal ratio of 90% or more (almost completely withered)),5 (Herbicidal ratio of 90% or more (almost completely withered)),,,,5 (Herbicidal ratio of 90% or more (almost completely withered)),5 (Herbicidal ratio of 90% or more (almost completely withered)),,,,,3 (Herbicidal ratio of 40% or higher and lower than 70%),5 (Herbicidal ratio of 90% or more (almost completely withered)),0 (Herbicidal ratio of 5% or lower (almost no effect)),0 (Herbicidal ratio of 5% or lower (almost no effect)),5 (Herbicidal ratio of 90% or more (almost completely withered)),4 (Herbicidal ratio of 70% or higher and lower than 90%),3 (Herbicidal ratio of 40% or higher and lower than 70%),5 (Herbicidal ratio of 90% or more (almost completely withered))
CON=C(CC1CC(O)=C(c2c(C)cc(C)cc2C)C1=O)C(C)C (stereo not drawn) [1-048],,4 (Herbicidal ratio of 70% or higher and lower than 90%),4 (Herbicidal ratio of 70% or higher and lower than 90%),,,,5 (Herbicidal ratio of 90% or more (almost completely withered)),5 (Herbicidal ratio of 90% or more (almost completely withered)),,,,,1 (Herbicidal ratio of 5% or higher and lower than 20%),3 (Herbicidal ratio of 40% or higher and lower than 70%),0 (Herbicidal ratio of 5% or lower (almost no effect)),1 (Herbicidal ratio of 5% or higher and lower than 20%),5 (Herbicidal ratio of 90% or more (almost completely withered)),3 (Herbicidal ratio of 40% or higher and lower than 70%),0 (Herbicidal ratio of 5% or lower (almost no effect)),4 (Herbicidal ratio of 70% or higher and lower than 90%)
